According to BindingDB's records for doi:10.7270/Q2XS5SVJ (Nmmlsc, 2010):

Molecular target: Guanine nucleotide-binding protein G(o) subunit alpha (Homo sapiens, UniProt P09471)
Experiment: RGS16-Galphao interaction regulators, SAR follow-up, biochemical, multiplexed bead assay, additional SAR round (AID 2828)

Sequence of Guanine nucleotide-binding protein G(o) subunit alpha (P09471 whole entry): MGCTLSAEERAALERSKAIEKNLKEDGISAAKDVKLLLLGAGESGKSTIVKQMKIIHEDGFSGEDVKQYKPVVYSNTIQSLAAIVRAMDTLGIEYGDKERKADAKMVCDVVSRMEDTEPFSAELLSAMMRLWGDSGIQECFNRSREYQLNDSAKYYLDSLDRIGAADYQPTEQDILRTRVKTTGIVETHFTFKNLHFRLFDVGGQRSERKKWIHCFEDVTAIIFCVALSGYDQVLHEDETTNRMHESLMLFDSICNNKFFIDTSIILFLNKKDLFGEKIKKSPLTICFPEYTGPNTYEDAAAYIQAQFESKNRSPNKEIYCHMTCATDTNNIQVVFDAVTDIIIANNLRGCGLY

Row | SMILES | EC50 [µM]
1 | O=C(c1sc2cc([N+](=O)[O-])ccc2c1Cl)N1CCNCC1 | > 30
2 | O=C(NCCCN1CCOCC1)c1sc2cc([N+](=O)[O-])ccc2c1Cl [3-chloranyl-N-(3-morpholin-4-ylpropyl)-6-nitro-1-benzothiophene-2-carboxamide] | > 30
3 | O=C(NCCCn1ccnc1)c1sc2cc([N+](=O)[O-])ccc2c1Cl [3-chloro-N-[3-(1-imidazolyl)propyl]-6-nitro-1-benzothiophene-2-carboxamide] | > 30
4 | NC(=O)c1sc2cc([N+](=O)[O-])ccc2c1Cl [KSC-1-100] | > 30
5 | Cc1ccc2c(Cl)c(C(=O)NCCCN3CCOCC3)sc2c1 [KUC103874N] | > 30
